Measured values: ChEMBL document CHEMBL6074663, “Design, synthesis and evaluation of 3-(2-(substituted benzyloxy)benzylidene) pyrrolidine-2,5-dione derivatives for novel ATX inhibitor” (Bioorg Med Chem Lett, 2024)

What was measured:
Autotaxin [1] = target: T1, Autotaxin (Homo sapiens, UniProt Q13822); experiment: Inhibition of ATX (unknown origin) using FS-3 as substrate preincubated with compound for 10 mins followed by substrate addition measured for 30 mins by fluorometric kinetic assay
[2] = Inhibition of collagen formation in oleic and palmitic acid induced human Huh-7 cells cocultured with human LX2 cells at 1 to 10 uM incubated for […] by Sirius Red staining based analysis; type: functional; settings: dose 1-10 µM
LX-2 = experiment: Inhibition of cell migration in TGF-beta induced human LX2 cells by measuring cell uncovered area at 0.3 to 3 uM incubated for 24 hrs by wound healing assay; type: functional; settings: dose 0.3-3 µM
Huh-7 = experiment: Anti-steatosis activity against oleic acid induced human Huh-7 cells assessed as reduction of lipid accumulation at 1 to 10 uM incubated for 24 hrs by […] based fluorescence microscopic analysis; type: functional; design: scale not given: the % may be the effect or the level left; settings: dose 1-10 µM
Autotaxin [3] = target: T1, Autotaxin; experiment: Inhibition of ATX (unknown origin) using FS-3 as substrate by measuring fold change preincubated with compound for 10 mins followed by substrate addition measured for 30 mins by fluorometric kinetic assay compared to 3-(2-(benzyloxy)benzylidene)-1-(3-chlorophenyl)pyrrolidine-2,5-dione; settings: time 40.0 min

Structure (SMILES) | IC50 (Autotaxin [1]) | further results
O=C(Oc1cccc2ccccc12)c1ccc(COc2ccccc2/C=C2/CC(=O)N(c3cccc(Cl)c3)C2=O)cc1 | > 10000 nM | 
CCCOC(=O)c1ccc(COc2ccccc2/C=C2/CC(=O)N(c3cccc(Cl)c3)C2=O)cc1 | 320 nM | 
CN(C)C(=O)c1ccc(COc2ccccc2/C=C2/CC(=O)N(c3cccc(Cl)c3)C2=O)cc1 | > 10000 nM | 
O=C1C/C(=C/c2ccccc2OCc2ccccc2)C(=O)N1c1cccc(Cl)c1 | 980 nM | 
O=C(Oc1ccccc1)c1ccc(COc2ccccc2/C=C2/CC(=O)N(c3cccc(Cl)c3)C2=O)cc1 | 2040 nM | 
O=C(O)c1ccc(COc2ccccc2/C=C2/CC(=O)N(c3cccc(Cl)c3)C2=O)cc1 | 9390 nM | 

Now those with a lower IC50 (Autotaxin [1]), led by results:

IC50 (Autotaxin [1]) | Structure (SMILES) | further results
280 nM | N#Cc1ccc(COc2ccccc2/C=C2/CC(=O)N(c3cccc(Cl)c3)C2=O)cc1 | fold change (FC) (Autotaxin [3]): 3.5
270 nM | CC(C)OC(=O)c1ccc(COc2ccccc2/C=C2/CC(=O)N(c3cccc(Cl)c3)C2=O)cc1 | 
240 nM | NC(=O)c1ccc(COc2ccccc2/C=C2/CC(=O)N(c3cccc(Cl)c3)C2=O)cc1 | 
130 nM | COC(=O)c1ccc(COc2ccccc2/C=C2\CC(=O)N(c3cccc(Cl)c3)C2=O)cc1 | inhibition (INH) [2]: 35%; inhibition (INH) (LX-2): 23%; Activity (Huh-7): 42%
